Experiments:
[1] = test system: ancef sensitive organisms; experiment: Minimum bactericidal concentration (MBC) of ancef; assay type: cell-based
Experimental: In an operating room setting, the vancomycin is reconstituted at room temperature (˜25° C.). […] To insure the Minimal Inhibitory Concentration (MIC) for vancomycin is exceeded, the total amount of vancomycin added to the mixture ranges from 1 mg to 5000 mg with the preferred amount being 500 mg for a 10 ml syringe, 750 mg for a 15 ml syringe, and 1000 for a 20 ml syringe. People having skill in the art will recognize that the concentrations of vancomycin can be adjusted for different sized syringes. The reconstituted vancomycin is added to the thrombin-flowable agent mixture to form a wound healing compound (“compound”). The compound is applied directly to the target wound. The Minimum Inhibitory Concentration (MIC) is defined as the lowest concentration of antimicrobial that will inhibit the visible growth of a microorganism after an overnight incubation. Related to this is the minimum bactericidal concentration (MBC), which is the lowest concentration of antimicrobial agent that will prevent the growth of an organism after subculture on to antibiotic free media.
Depending on the infection agent, other antibiotics may be added to the mixture to form the wound healing compound. In the lab, ancef sensitive organisms are inhibited at an MIC ranging from 1-4 mcg/ml. However, ancef is bactericidal a four times the MIC. […]

[2] = test system: ancef sensitive organisms; details: in the lab; cited from earlier work
[3] = test system: all ranges of bacterial infection; details: in water or saline; cited from earlier work

Compound | preferred concentration (the MBC), bactericidal at four times the MIC [1] | MIC [2] | concentration at which most effective if all ranges of bacterial infection are to be inhibited [3]
Cc1nnc(SCC2=C(C(=O)O)N3C(=O)[C@@H](NC(=O)Cn4cnnn4)[C@H]3SC2)s1 [ancef] | at least 16 mcg/ml | 1 to 4 µg/mL | –
CN[C@H](CC(C)C)C(=O)N[C@H]1C(=O)N[C@@H](CC(N)=O)C(=O)N[C@H]2C(=O)N[C@H]3C(=O)N[C@H](C(=O)N[C@H](C(=O)O)c4cc(O)cc(O)c4-c4cc3ccc4O)[C@H](O)c3ccc(c(Cl)c3)Oc3cc2cc(c3O[C@@H]2O[C@H](CO)[C@@H](O)[C@H](O)[C@H]2O[C@H]2C[C@](C)(N)[C@H](O)[C@H](C)O2)Oc2ccc(cc2Cl)[C@H]1O [Vancomycin, vancomycin] | – | – | ≥ 16 µg/mL

Reference: patent US20170354721A1, “WOUND HEALING COMPOUND” (priority 2016, published 2017)
